Experimental data: patent publication US20160235752A1, “COMPOSITIONS, METHODS OF USE, AND METHODS OF TREATMENT” (THE UNIVERSITY OF NEW ORLEANS, priority 2013, published 2016)
≈ marks a conversion by molar mass, not a printed value.

Tests used:
[1] = tested on: Candida albicans (ATCC no. 10231); test: MIC determination by broth microdilution (NCCLS), visual scoring; assay type: cell-based; conditions: for MIC80: Candida albicans, ATCC10231, read-out: MIC80 C. albicans
Experimental: The antifungal activity of the 2,4,6-pyrimidinetrione analogs shown in Schemes 2-6 were evaluated in vitro using Candida albicans (ATCC no. 10231) and Candida glabrata (ATCC no 48435). All assays were done in accordance with NCCLS reference documents^29.
(§1) Master stock concentrations of all tested compounds were prepared to ensure that the maximum final concentration of DMSO was 1% or less. Subsequent 2-fold serial dilutions were made using sterile water to a final concentration of 1280-5.00 μg/ml. A final 10-fold dilution of each drug was made by aliquotting 0.1 mL of each drug dilution into 0.9 mL of fungal suspension in RPMI 1640 media with 10 mM HEPES buffer added (see methodology below), giving final concentrations tested in the range of 128-0.5 μg/ml.
(§2) Antifungal susceptibility studies and minimal inhibitory concentrations (MIC) values for Candida albicans (ATCC no. 10231) and Candida glabrata (ATCC no. 48435) were determined by the broth microdilution technique in accordance with NCCLS reference documents. Microdilution panels ranged from 0.5 to 128 μg/mL. All organisms were subcultured on Sabouraud agar and passaged to ensure purity and viability. The initiating inocula were prepared by picking 5-7 isolated colonies ˜1 mm in diameter from freshly prepared YM agar plates. Colonies were resuspended in sterile water, vortexed and the cell density was adjusted spectrophotometrically to the transmittance of a 0.5 McFarland standard at a wavelength of 530 nm, to yield a stock suspension of 1×10^6-5×10^6 cells/mL. The stock was allowed to hydrate for 30 minutes at room temperature. A working suspension was then made by diluting the stock 1:50 with RPMI 1640 media containing HEPES buffer. The working suspension was used for all assays. The plates were incubated at 35° C. for 48-72 hours in a humid atmosphere. Growth was scored visually. MIC values are defined as the lowest concentration of agent that prevents any discernible growth, ˜80% reduction of growth, as compared with drug-free control wells. All assays were run in parallel using either fluconazole or amphotericin B at the NCCLS recommended concentrations^29 as a drug control (Sigma-Aldrich).

[2] = tested on: Candida glabrata (ATCC no. 48435); test: as above; assay type: cell-based; conditions: for MIC80: Nakaseomyces glabratus, ATCC48435, read-out: MIC80 C. glabrata
Experimental: The antifungal activity of the 2,4,6-pyrimidinetrione analogs shown in Schemes 2-6 were evaluated in vitro using Candida albicans (ATCC no. 10231) and Candida glabrata (ATCC no 48435). All assays were done in accordance with NCCLS reference documents^29. The results of these screenings are summarized in Tables 1-9 as the minimal inhibitory concentrations that inhibited more than 80% fungal growth as compared to the positive controls in 1% DMSO and RPMI media. All MIC screens were done using a visual scoring method as opposed to spectroscopic methods of analysis, due to the physical properties of many of the compounds altering their absorbance spectra relative to the positive, negative and drug controls.
as §1, with “None of the compounds tested over the course of these studies were soluble in water and DMSO was used to dilute each compound tested. Master” for “Master”
as §2

[3] = Table 1, 5-Acyl-2,4,6-pyrimidinetriones, >80% growth inhibition, RPMI, 1% DMSO
[4] = Table 2, 5-Arylidene-2,4,6-pyrimidinetriones
[5] = Table 7, Phenylhydrazones of 5-Acylpyrimidinetriones
[6] = Table 3, 5-Alkylated Pyrimidinetriones
[7] = Table 5, Schiff Bases of 5-acylpyrimidinetriones
[8] = Table 8, N-Acylhydrazones of 5-Acylpyrimidinetriones

`CCCCN1C(=O)NC(=O)C(C(=O)c2ccc(OC)cc2)C1=O` (centres unmarked) [BA16] was tested. Which “MIC80 C. albicans” value [1, 3] did it give?
Its value is “— (none of the 5-acyl-2,4,6-pyrimidinetriones, 5-alkylated pyrimidinetriones or the 5,5-dialkylated pyrimidinetriones showed antifungal activity through 125 μg/mL)”.

And the “MIC80 C. glabrata” value [2, 3]?
The value was “— (none of the 5-acyl-2,4,6-pyrimidinetriones, 5-alkylated pyrimidinetriones or the 5,5-dialkylated pyrimidinetriones showed antifungal activity through 125 μg/mL)”.

How did the MIC80 [1] turn out when `CN1C(=O)C(/C=N/Nc2ccccc2)C(=O)N(C)C1=O` [BA73, 1,3-dimethyl-5-[(E)-(2-phenylhydrazinylidene)methyl]pyrimidine-2,4,6-trione] was run?
The MIC80 was 4 µg/mL (≈ 14.6 µM).

What about the MIC80 [2] of the same compound?
The MIC80 was 2 µg/mL (≈ 7.29 µM).

`CN1C(=O)C(=Cc2ccc(O)cc2O)C(=O)N(C)C1=O` [BA48] was tested. Which “MIC80 C. albicans” value [1, 4] did it give?
The value was “— (none of the 5-acyl-2,4,6-pyrimidinetriones, 5-alkylated pyrimidinetriones or the 5,5-dialkylated pyrimidinetriones showed antifungal activity through 125 μg/mL)”.

And the “MIC80 C. glabrata” value [2, 4]?
The value was 2 µg/mL (≈ 7.24 µM).

For `CCCCN1C(=O)NC(=O)C(C(=NNc2ccc([N+](=O)[O-])cc2[N+](=O)[O-])c2ccccc2)C1=O` (centres unmarked) [BA31], which “MIC80 C. albicans” value [1, 5] is on record?
The value was “— (none of the 5-acyl-2,4,6-pyrimidinetriones, 5-alkylated pyrimidinetriones or the 5,5-dialkylated pyrimidinetriones showed antifungal activity through 125 μg/mL)”.

What about the “MIC80 C. glabrata” value [2, 5] of the same compound?
The value was “— (none of the 5-acyl-2,4,6-pyrimidinetriones, 5-alkylated pyrimidinetriones or the 5,5-dialkylated pyrimidinetriones showed antifungal activity through 125 μg/mL)”.

`COc1ccc(C(=O)C2C(=O)N(C)C(=O)N(C)C2=O)cc1` [BA15] was tested. Which “MIC80 C. albicans” value [1, 3] did it give?
The value was “— (none of the 5-acyl-2,4,6-pyrimidinetriones, 5-alkylated pyrimidinetriones or the 5,5-dialkylated pyrimidinetriones showed antifungal activity through 125 μg/mL)”.

And the “MIC80 C. glabrata” value [2, 3]?
The value was “— (none of the 5-acyl-2,4,6-pyrimidinetriones, 5-alkylated pyrimidinetriones or the 5,5-dialkylated pyrimidinetriones showed antifungal activity through 125 μg/mL)”.

`O=C1NC(=O)C(C2CCCCC2)C(=O)N1` [BA62] was tested. Which “MIC80 C. albicans” value [1, 6] did it give?
The value was “— (none of the 5-acyl-2,4,6-pyrimidinetriones, 5-alkylated pyrimidinetriones or the 5,5-dialkylated pyrimidinetriones showed antifungal activity through 125 μg/mL)”.

And the “MIC80 C. glabrata” value [2, 6]?
The value was “— (none of the 5-acyl-2,4,6-pyrimidinetriones, 5-alkylated pyrimidinetriones or the 5,5-dialkylated pyrimidinetriones showed antifungal activity through 125 μg/mL)”.

Which results are given for `CC(=Nc1ccncc1)C1C(=O)N(C)C(=O)N(C)C1=O` [BA84]?
MIC80 C. albicans [1, 7]: — (none of the 5-acyl-2,4,6-pyrimidinetriones, 5-alkylated pyrimidinetriones or the 5,5-dialkylated pyrimidinetriones showed antifungal activity through 125 μg/mL); MIC80 C. glabrata [2, 7]: — (none of the 5-acyl-2,4,6-pyrimidinetriones, 5-alkylated pyrimidinetriones or the 5,5-dialkylated pyrimidinetriones showed antifungal activity through 125 μg/mL)

Which “MIC80 C. albicans” value [1, 6] does the source give for `CC(C)C1C(=O)NC(=O)N(c2ccccc2)C1=O` (centres unmarked) [BA61] here?
Its value is “— (none of the 5-acyl-2,4,6-pyrimidinetriones, 5-alkylated pyrimidinetriones or the 5,5-dialkylated pyrimidinetriones showed antifungal activity through 125 μg/mL)”.

What about the “MIC80 C. glabrata” value [2, 6] of the same compound?
Its value is “— (none of the 5-acyl-2,4,6-pyrimidinetriones, 5-alkylated pyrimidinetriones or the 5,5-dialkylated pyrimidinetriones showed antifungal activity through 125 μg/mL)”.

`C/C(=N\Nc1ccc([N+](=O)[O-])cc1[N+](=O)[O-])C1C(=O)N(C)C(=O)N(C)C1=O` [BA27, 5-{(1E)-1-[2-(2,4-dinitrophenyl)hydrazinylidene]ethyl}-1,3-dimethylpyrimidine-2,4,6-trione] was tested. Which MIC80 [1] did it give?
The MIC80 was > 125 µg/mL.

And the MIC80 [2]?
The MIC80 was > 125 µg/mL.

Which “MIC80 C. albicans” value [1, 7] does the source give for `CC(=Nc1ccncc1)C1C(=O)NC(=O)NC1=O` [BA88] here?
Its value is “— (none of the 5-acyl-2,4,6-pyrimidinetriones, 5-alkylated pyrimidinetriones or the 5,5-dialkylated pyrimidinetriones showed antifungal activity through 125 μg/mL)”.

And the “MIC80 C. glabrata” value [2, 7]?
Its value is “— (none of the 5-acyl-2,4,6-pyrimidinetriones, 5-alkylated pyrimidinetriones or the 5,5-dialkylated pyrimidinetriones showed antifungal activity through 125 μg/mL)”.

With `O=C1NC(=O)C(=Cc2ccccc2)C(=O)N1` [BA39] as the compound, how does the “MIC80 C. albicans” value [1, 4] read?
Its value is “— (none of the 5-acyl-2,4,6-pyrimidinetriones, 5-alkylated pyrimidinetriones or the 5,5-dialkylated pyrimidinetriones showed antifungal activity through 125 μg/mL)”.

What about the “MIC80 C. glabrata” value [2, 4] of the same compound?
The value was “— (none of the 5-acyl-2,4,6-pyrimidinetriones, 5-alkylated pyrimidinetriones or the 5,5-dialkylated pyrimidinetriones showed antifungal activity through 125 μg/mL)”.

What does the source list for `O=C1NC(=O)C(C=Nc2ccncc2)C(=O)N1` [BA83]?
MIC80 C. albicans [1, 7]: — (none of the 5-acyl-2,4,6-pyrimidinetriones, 5-alkylated pyrimidinetriones or the 5,5-dialkylated pyrimidinetriones showed antifungal activity through 125 μg/mL); MIC80 C. glabrata [2, 7]: — (none of the 5-acyl-2,4,6-pyrimidinetriones, 5-alkylated pyrimidinetriones or the 5,5-dialkylated pyrimidinetriones showed antifungal activity through 125 μg/mL)

What does the source list for `CC(=Nc1ccccc1)C1C(=O)NC(=O)NC1=O` [BA92]?
MIC80 C. albicans [1, 7]: — (none of the 5-acyl-2,4,6-pyrimidinetriones, 5-alkylated pyrimidinetriones or the 5,5-dialkylated pyrimidinetriones showed antifungal activity through 125 μg/mL); MIC80 C. glabrata [2, 7]: — (none of the 5-acyl-2,4,6-pyrimidinetriones, 5-alkylated pyrimidinetriones or the 5,5-dialkylated pyrimidinetriones showed antifungal activity through 125 μg/mL)

Which “MIC80 C. albicans” value [1, 8] does the source give for `COC(=O)NN=C(C)C1C(=O)N(C)C(=O)N(C)C1=O` [BA75] here?
The value was “— (none of the 5-acyl-2,4,6-pyrimidinetriones, 5-alkylated pyrimidinetriones or the 5,5-dialkylated pyrimidinetriones showed antifungal activity through 125 μg/mL)”.

And the “MIC80 C. glabrata” value [2, 8]?
Its value is “— (none of the 5-acyl-2,4,6-pyrimidinetriones, 5-alkylated pyrimidinetriones or the 5,5-dialkylated pyrimidinetriones showed antifungal activity through 125 μg/mL)”.

Which MIC80 [1] does the source give for `O=C1NC(=O)C(=Cc2ccccc2O)C(=O)N1` [BA47, 5-(2-hydroxybenzylidene)pyrimidine-2,4,6-trione] here?
The MIC80 was > 125 µg/mL.

What about the MIC80 [2] of the same compound?
Its MIC80 is 8 µg/mL (≈ 34.5 µM).

Which results are given for `O=C1NC(=O)C(C(=O)c2cc([N+](=O)[O-])cc([N+](=O)[O-])c2)C(=O)N1` [BA8]?
MIC80 C. albicans [1, 3]: — (none of the 5-acyl-2,4,6-pyrimidinetriones, 5-alkylated pyrimidinetriones or the 5,5-dialkylated pyrimidinetriones showed antifungal activity through 125 μg/mL); MIC80 C. glabrata [2, 3]: — (none of the 5-acyl-2,4,6-pyrimidinetriones, 5-alkylated pyrimidinetriones or the 5,5-dialkylated pyrimidinetriones showed antifungal activity through 125 μg/mL)

With `O=C1NC(=O)C(Cc2ccc3ccccc3c2)C(=O)N1` [BA69] as the compound, how does the “MIC80 C. albicans” value [1, 6] read?
The value was “— (none of the 5-acyl-2,4,6-pyrimidinetriones, 5-alkylated pyrimidinetriones or the 5,5-dialkylated pyrimidinetriones showed antifungal activity through 125 μg/mL)”.

And the “MIC80 C. glabrata” value [2, 6]?
The value was “— (none of the 5-acyl-2,4,6-pyrimidinetriones, 5-alkylated pyrimidinetriones or the 5,5-dialkylated pyrimidinetriones showed antifungal activity through 125 μg/mL)”.

Which results are given for `CN1C(=O)C(=Cc2ccc(O)cc2)C(=O)N(C)C1=O` [BA45]?
MIC80 C. albicans [1, 4]: — (none of the 5-acyl-2,4,6-pyrimidinetriones, 5-alkylated pyrimidinetriones or the 5,5-dialkylated pyrimidinetriones showed antifungal activity through 125 μg/mL); MIC80 C. glabrata [2, 4]: — (none of the 5-acyl-2,4,6-pyrimidinetriones, 5-alkylated pyrimidinetriones or the 5,5-dialkylated pyrimidinetriones showed antifungal activity through 125 μg/mL)

What does the source list for `COc1ccc(C=C2C(=O)N(C)C(=O)N(C)C2=O)c(OC)c1OC` [BA51]?
MIC80 C. albicans [1, 4]: — (none of the 5-acyl-2,4,6-pyrimidinetriones, 5-alkylated pyrimidinetriones or the 5,5-dialkylated pyrimidinetriones showed antifungal activity through 125 μg/mL); MIC80 C. glabrata [2, 4]: — (none of the 5-acyl-2,4,6-pyrimidinetriones, 5-alkylated pyrimidinetriones or the 5,5-dialkylated pyrimidinetriones showed antifungal activity through 125 μg/mL)

For `O=C1NC(=O)C(/C(=N/Nc2ccc([N+](=O)[O-])cc2[N+](=O)[O-])c2ccccc2)C(=O)N1` [BA30, 5-[(Z)-[2-(2,4-Dinitrophenyl)hydrazinylidene](phenyl)methyl]pyrimidine-2,4,6-trione], which MIC80 [1] is on record?
The MIC80 was > 125 µg/mL.

What about the MIC80 [2] of the same compound?
Its MIC80 is > 125 µg/mL.

For `COc1ccc(N=CC2C(=O)N(C)C(=O)N(C)C2=O)cc1` [BA98], which “MIC80 C. albicans” value [1, 7] is on record?
The value was “— (none of the 5-acyl-2,4,6-pyrimidinetriones, 5-alkylated pyrimidinetriones or the 5,5-dialkylated pyrimidinetriones showed antifungal activity through 125 μg/mL)”.
